Experimental data as given in article PMC5772648, “Targeted NUDT5 inhibitors block hormone signaling in breast cancer cells” (Nature Communications, 2018).

What was measured:
Assay type in all cases: cell-based
T47D cells = test: R5020-induced proliferation by BrdU incorporation; conditions: 1.5 µM, 24 h after R5020
Experimental: T47D^M cells (1 × 10^4) were plated in a 96-well plate in the presence or absence of inhibitors 2 h prior to R5020 addition. The cell proliferation ELISA BrdU chemiluminescent assay (Roche) was performed according to the manufacturer’s instructions 24 h following hormone addition.

U-2 OS cells = test: DNA damage signaling by immunofluorescence (γH2A.X, 53BP1, RPA); conditions: 10 µM, 72 h
Experimental: Following siRNA knockdown for 48 h, 10 000 U-2 OS cells were seeded per well in black, clear-bottomed 96-well plates (BD Falcon) and allowed to grow for an additional 48 h. For inhibitor treatment experiments, cells were plated at 2000 per well and 10 µM TH5427 was added the following day for an additional 72 h. Cells were washed with PBS and then fixed with 4% paraformaldehyde in PBS (Santa Cruz) with 0.5% Triton X-100 for 15 min. Primary antibodies were γH2A.X (Millipore, 1:1000 or Cell Signaling, 1:1000), 53BP1 (Bethyl, 1:1000 or Abcam, 1:500) and RPA32 (Cell Signaling, 1:1000) diluted in 3% BSA/PBS and incubated at 4 °C overnight. Alexa Fluor secondary antibodies (ThermoFisher) were used at 1:1000 diluted in 3% BSA/PBS for 1 h at room temperature. DNA was counterstained with DAPI and plates were visualized using an ImageXpress high-throughput microscope (Molecular Devices) with 20x objective. Image analysis was performed with CellProfiler software (Broad Institute).

MTH1 = MTH1 (Homo sapiens, UniProt P36639); test: CETSA melt curve for MTH1; parameters: endogenous in cells; conditions: 20 µM
Experimental: For CETSA experiments with cells treated in culture, 1 × 10^6 HL-60 were treated with DMSO (0.1 % v/v final) or 20 µM compound for 3 h at 37 °C and 5% CO2 in a humidified incubator. T47D^WT cells were treated instead with 80 µM TH1659, 15 µM TH5423/5424 and 1.5 µM TH5427. The cells were harvested, washed twice with PBS and resuspended in TBS with protease inhibitors, as above. Heating was identical as before, except that immediately following heating, the cell suspensions were snap frozen in a dry ice/ethanol bath and freeze-thawed, as previously, to lyse cells. Centrifugation at 20 000 × g for 20 min at 4 °C removed cellular debris and protein aggregates, and lysates were prepared for western blotting.

## Cn1c(=O)c2c(nc(N3CCNCC3)n2Cc2nnc(-c3ccc(Cl)c(Cl)c3)o2)n(C)c1=O [TH5427]
T47D cells
  progestin-dependent proliferation, BrdU incorporation: abrogated the progestin-dependent proliferation response
U-2 OS cells
  DNA damage signaling: neither induced significant DNA damage signaling
MTH1
  thermal shift of MTH1 by CETSA: no thermal shift
